Results from PubChem BioAssay (NCI).
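All cell lines were grown in 96-well plates and treated with compound for 48 hours. At the TGI there is no net growth.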

Experiments:
Assay in all cases: NCI tumour cell line growth inhibition, 48 h
KM12 colon = test system: KM12 colon
HOP-62 NSCLC = test system: HOP-62 NSCLC
HS 578T breast = test system: HS 578T breast
SR leukemia = test system: SR leukemia
NCI-H522 lung = test system: NCI-H522 lung
DU-145 prostate = test system: DU-145 prostate
UO-31 renal = test system: UO-31 renal
NCI-H460 lung = test system: NCI-H460 lung
HCT-116 colon = test system: HCT-116 colon
EKVX NSCLC = test system: EKVX NSCLC
TK-10 renal = test system: TK-10 renal
BT-549 breast = test system: BT-549 breast
SNB-75 CNS = test system: SNB-75 CNS
HCC-2998 colon = test system: HCC-2998 colon
SK-MEL-5 melanoma = test system: SK-MEL-5 melanoma
A549 NSCLC = test system: A549 NSCLC
MDA-N = test system: MDA-N
UACC-257 melanoma = test system: UACC-257 melanoma
ACHN renal = test system: ACHN renal
CAKI-1 renal = test system: CAKI-1 renal
SF-268 CNS = test system: SF-268 CNS
OVCAR-4 ovarian = test system: OVCAR-4 ovarian
HT29 colon = test system: HT29 colon
SW-620 colon = test system: SW-620 colon
RXF 393 renal = test system: RXF 393 renal
HCT-15 colon = test system: HCT-15 colon
CCRF-CEM leukemia = test system: CCRF-CEM leukemia
HOP-92 NSCLC = test system: HOP-92 NSCLC
SN12C renal = test system: SN12C renal
RPMI-8226 leukemia = test system: RPMI-8226 leukemia
OVCAR-3 ovarian = test system: OVCAR-3 ovarian
M14 melanoma = test system: M14 melanoma
OVCAR-5 ovarian = test system: OVCAR-5 ovarian
SNB-19 CNS = test system: SNB-19 CNS
A498 renal = test system: A498 renal
MOLT-4 leukemia = test system: MOLT-4 leukemia
HL-60(TB) leukemia = test system: HL-60(TB) leukemia
NCI-H226 lung = test system: NCI-H226 lung
786-0 renal = test system: 786-0 renal
SF-295 CNS = test system: SF-295 CNS
LOX IMVI melanoma = test system: LOX IMVI melanoma
PC-3 prostate = test system: PC-3 prostate
U251 CNS = test system: U251 CNS
SF-539 CNS = test system: SF-539 CNS
OVCAR-8 ovarian = test system: OVCAR-8 ovarian
SK-MEL-28 melanoma = test system: SK-MEL-28 melanoma
NCI-H23 lung = test system: NCI-H23 lung
K-562 leukemia = test system: K-562 leukemia
T-47D breast = test system: T-47D breast
MDA-MB-231 breast = test system: MDA-MB-231 breast
MCF7 breast = test system: MCF7 breast
MALME-3M melanoma = test system: MALME-3M melanoma
IGROV1 ovarian = test system: IGROV1 ovarian
UACC-62 melanoma = test system: UACC-62 melanoma
NCI/ADR-RES ovarian = test system: NCI/ADR-RES ovarian
SK-MEL-2 melanoma = test system: SK-MEL-2 melanoma
COLO 205 colon = test system: COLO 205 colon

Measured: TGI

CN(CC(=O)Nc1ccccc1C(=O)O)c1ccccc1
not listed: UACC-62 melanoma | NCI/ADR-RES ovarian | SK-MEL-2 melanoma | COLO 205 colon
> 100 µM: all other assays above

CC(=O)Nc1nc2c(=O)c3ccccc3sc2s1
not listed: SR leukemia | NCI-H522 lung | HCC-2998 colon | OVCAR-4 ovarian | SW-620 colon | HOP-92 NSCLC | LOX IMVI melanoma | U251 CNS | SK-MEL-28 melanoma | MALME-3M melanoma
> 100 µM: all other assays above
